Measured values reported in ChEMBL document CHEMBL5154936, “Scaffold Hopping Strategy to Identify Prostanoid EP4 Receptor Antagonists for Cancer Immunotherapy” (J Med Chem, 2022).
pIC50: −log10 of the molar value. Blank lines part the entries; values can stand above or below the compound they belong to.

Legend:
[1] = target: Prostaglandin E2 receptor EP4 subtype (Homo sapiens, UniProt P35408); assay: Antagonist activity at human EP4 receptor transfected in CHO/Galpha16 cells preincubated for 15 mins followed by PGE2 addition by calcium flux assay; assay type: functional, cell-based
Chain of Prostaglandin E2 receptor EP4 subtype (Homo sapiens, UniProt P35408) (P35408 whole entry): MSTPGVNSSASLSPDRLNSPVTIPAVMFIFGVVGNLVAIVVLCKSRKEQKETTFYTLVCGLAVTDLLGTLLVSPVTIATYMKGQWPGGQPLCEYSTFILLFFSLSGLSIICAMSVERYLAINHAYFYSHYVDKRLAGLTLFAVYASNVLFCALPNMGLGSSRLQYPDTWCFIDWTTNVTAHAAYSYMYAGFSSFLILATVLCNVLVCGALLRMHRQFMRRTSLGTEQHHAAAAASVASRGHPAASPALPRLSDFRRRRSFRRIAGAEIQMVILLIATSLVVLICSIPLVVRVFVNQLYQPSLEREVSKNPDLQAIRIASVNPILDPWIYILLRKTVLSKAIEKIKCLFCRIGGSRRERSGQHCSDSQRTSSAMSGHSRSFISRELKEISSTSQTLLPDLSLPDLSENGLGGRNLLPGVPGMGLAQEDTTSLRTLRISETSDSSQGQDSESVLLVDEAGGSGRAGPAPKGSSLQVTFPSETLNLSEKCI

[2] = target: Prostaglandin E2 receptor EP4 subtype (Mus musculus, UniProt P32240); assay: Antagonist activity at mouse EP4 receptor transfected in CHO/Galpha16 cells preincubated for 15 mins followed by PGE2 addition by calcium flux assay; assay type: functional, cell-based
Chain of Prostaglandin E2 receptor EP4 subtype (Mus musculus, UniProt P32240) (P32240 whole entry): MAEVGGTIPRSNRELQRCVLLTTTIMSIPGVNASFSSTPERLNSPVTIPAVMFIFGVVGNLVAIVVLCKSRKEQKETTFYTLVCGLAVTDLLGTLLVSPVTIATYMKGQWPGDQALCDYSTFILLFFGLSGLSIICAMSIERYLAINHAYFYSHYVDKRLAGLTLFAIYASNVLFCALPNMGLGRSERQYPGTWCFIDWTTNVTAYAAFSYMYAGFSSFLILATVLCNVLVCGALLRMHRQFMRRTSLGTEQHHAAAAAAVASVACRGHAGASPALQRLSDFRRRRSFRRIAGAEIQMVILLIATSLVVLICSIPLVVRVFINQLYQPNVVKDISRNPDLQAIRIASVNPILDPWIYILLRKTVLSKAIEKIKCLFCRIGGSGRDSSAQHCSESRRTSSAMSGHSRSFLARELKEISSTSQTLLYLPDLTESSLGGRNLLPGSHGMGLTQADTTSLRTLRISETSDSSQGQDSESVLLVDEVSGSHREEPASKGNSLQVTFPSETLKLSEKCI

[3] = target: T1, Prostaglandin E2 receptor EP1 subtype (Homo sapiens, UniProt P34995); assay: Antagonist activity at human EP1 receptor transfected in CHO/Galpha16 cells preincubated for 15 mins followed by PGE2 addition by calcium flux assay; assay type: functional, cell-based
T1 sequence (P34995 whole entry): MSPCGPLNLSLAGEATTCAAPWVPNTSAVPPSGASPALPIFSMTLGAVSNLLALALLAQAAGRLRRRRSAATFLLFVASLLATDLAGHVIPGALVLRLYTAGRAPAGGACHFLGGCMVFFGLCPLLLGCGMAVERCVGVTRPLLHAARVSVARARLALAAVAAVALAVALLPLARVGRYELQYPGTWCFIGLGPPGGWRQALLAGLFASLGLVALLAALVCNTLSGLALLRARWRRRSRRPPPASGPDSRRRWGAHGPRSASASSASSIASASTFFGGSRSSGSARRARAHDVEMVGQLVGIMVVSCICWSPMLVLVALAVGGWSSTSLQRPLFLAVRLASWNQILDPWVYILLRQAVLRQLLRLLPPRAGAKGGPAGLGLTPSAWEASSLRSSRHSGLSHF

[4] = target: Prostaglandin E2 receptor EP2 subtype (Homo sapiens, UniProt P43116); assay: Antagonist activity at human EP2 receptor transfected in CHO/Galpha16 cells preincubated for 15 mins followed by PGE2 addition by calcium flux assay; assay type: functional, cell-based
Chain of Prostaglandin E2 receptor EP2 subtype (P43116 whole entry): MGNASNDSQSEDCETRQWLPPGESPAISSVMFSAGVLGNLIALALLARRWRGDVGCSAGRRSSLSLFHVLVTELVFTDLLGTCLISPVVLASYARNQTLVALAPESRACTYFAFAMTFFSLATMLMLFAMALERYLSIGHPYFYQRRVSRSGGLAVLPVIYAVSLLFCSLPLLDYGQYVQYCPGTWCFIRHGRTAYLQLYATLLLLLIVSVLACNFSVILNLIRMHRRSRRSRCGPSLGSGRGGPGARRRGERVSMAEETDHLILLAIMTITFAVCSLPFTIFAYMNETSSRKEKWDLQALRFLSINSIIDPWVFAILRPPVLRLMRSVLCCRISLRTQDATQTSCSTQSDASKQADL

[5] = target: T2, Prostaglandin E2 receptor EP3 subtype (Homo sapiens, UniProt P43115); assay: Antagonist activity at human EP3 receptor transfected in CHO/Galpha16 cells preincubated for 15 mins followed by PGE2 addition by calcium flux assay; assay type: functional, cell-based
T2 sequence (P43115 whole entry): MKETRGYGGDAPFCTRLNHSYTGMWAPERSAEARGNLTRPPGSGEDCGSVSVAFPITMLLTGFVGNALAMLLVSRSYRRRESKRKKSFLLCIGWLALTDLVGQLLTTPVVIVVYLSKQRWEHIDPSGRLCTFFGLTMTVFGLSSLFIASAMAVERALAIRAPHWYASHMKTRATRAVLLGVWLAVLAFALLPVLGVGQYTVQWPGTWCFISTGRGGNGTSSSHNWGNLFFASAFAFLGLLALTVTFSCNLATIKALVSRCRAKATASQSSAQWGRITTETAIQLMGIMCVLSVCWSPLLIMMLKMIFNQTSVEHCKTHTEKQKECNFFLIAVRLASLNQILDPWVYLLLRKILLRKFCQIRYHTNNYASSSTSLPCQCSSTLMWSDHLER

[6] = Metabolic stability in human liver microsomes assessed as half life; assay type: ADME, Microsome
[7] = Metabolic stability in human liver microsomes assessed as intrinsic clearance; assay type: ADME, Microsome; details: read-out: CLH
[8] = Metabolic stability in human liver microsomes assessed as parent compound remaining at 10 uM measured after 60 mins; assay type: ADME, Microsome; details: read-out: Stability
[9] = Metabolic stability in mouse liver microsomes assessed as half life; assay type: ADME, Microsome
[10] = Metabolic stability in mouse liver microsomes assessed as intrinsic clearance; assay type: ADME, Microsome; details: read-out: CLH
[11] = Metabolic stability in mouse liver microsomes assessed as parent compound remaining at 10 uM measured after 60 mins; assay type: ADME, Microsome; details: read-out: Stability
[12] = tested on: EMT6; assay: Cytotoxicity against mouse EMT6 cells assessed as reduction in cell viability incubated for 72 hrs by CCK-8 assay; details: EMT6, 72 h
[13] = tested on: 3LL cell line; assay: Cytotoxicity against mouse 3LL cells assessed as reduction in cell viability incubated for 72 hrs by CCK-8 assay
[14] = target: CYP2C9 (Homo sapiens, UniProt P11712); assay: Inhibition of CYP2C9 (unknown origin) at 20 uM; assay type: ADME
Chain of CYP2C9 (P11712 whole entry): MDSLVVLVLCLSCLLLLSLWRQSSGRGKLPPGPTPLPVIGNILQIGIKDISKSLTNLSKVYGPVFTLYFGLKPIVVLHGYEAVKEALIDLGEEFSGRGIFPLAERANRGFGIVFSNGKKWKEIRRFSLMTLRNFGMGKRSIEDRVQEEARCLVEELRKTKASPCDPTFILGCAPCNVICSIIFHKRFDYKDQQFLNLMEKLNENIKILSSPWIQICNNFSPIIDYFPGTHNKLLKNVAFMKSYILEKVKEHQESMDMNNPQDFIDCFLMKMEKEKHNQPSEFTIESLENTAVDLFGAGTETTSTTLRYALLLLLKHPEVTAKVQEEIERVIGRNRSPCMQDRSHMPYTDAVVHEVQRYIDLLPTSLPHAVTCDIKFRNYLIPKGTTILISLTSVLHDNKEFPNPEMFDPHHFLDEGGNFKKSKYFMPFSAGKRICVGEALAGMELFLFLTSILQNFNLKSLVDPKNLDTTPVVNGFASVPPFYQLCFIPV

[15] = target: T3, CYP1A2 (Homo sapiens, UniProt P05177); assay: Inhibition of CYP1A2 (unknown origin) at 20 uM; assay type: ADME
T3 sequence (P05177 whole entry): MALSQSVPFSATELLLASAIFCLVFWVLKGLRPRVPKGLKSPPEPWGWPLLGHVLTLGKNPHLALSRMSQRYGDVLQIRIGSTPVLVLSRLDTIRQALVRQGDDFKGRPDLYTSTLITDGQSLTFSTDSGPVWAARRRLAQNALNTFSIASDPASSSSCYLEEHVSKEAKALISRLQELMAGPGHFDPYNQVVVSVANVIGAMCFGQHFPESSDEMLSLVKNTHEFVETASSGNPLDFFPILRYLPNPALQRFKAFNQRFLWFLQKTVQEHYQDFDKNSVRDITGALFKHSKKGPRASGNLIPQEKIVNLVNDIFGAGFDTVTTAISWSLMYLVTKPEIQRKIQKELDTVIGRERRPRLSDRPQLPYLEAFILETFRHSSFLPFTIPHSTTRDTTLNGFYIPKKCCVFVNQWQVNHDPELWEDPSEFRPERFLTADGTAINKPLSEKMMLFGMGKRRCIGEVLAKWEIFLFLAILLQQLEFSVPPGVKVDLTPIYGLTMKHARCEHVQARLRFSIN

[16] = target: T4, CYP2B6 (Homo sapiens, UniProt P20813); assay: Inhibition of CYP2B6 (unknown origin) at 20 uM; assay type: ADME
T4 sequence (P20813 whole entry): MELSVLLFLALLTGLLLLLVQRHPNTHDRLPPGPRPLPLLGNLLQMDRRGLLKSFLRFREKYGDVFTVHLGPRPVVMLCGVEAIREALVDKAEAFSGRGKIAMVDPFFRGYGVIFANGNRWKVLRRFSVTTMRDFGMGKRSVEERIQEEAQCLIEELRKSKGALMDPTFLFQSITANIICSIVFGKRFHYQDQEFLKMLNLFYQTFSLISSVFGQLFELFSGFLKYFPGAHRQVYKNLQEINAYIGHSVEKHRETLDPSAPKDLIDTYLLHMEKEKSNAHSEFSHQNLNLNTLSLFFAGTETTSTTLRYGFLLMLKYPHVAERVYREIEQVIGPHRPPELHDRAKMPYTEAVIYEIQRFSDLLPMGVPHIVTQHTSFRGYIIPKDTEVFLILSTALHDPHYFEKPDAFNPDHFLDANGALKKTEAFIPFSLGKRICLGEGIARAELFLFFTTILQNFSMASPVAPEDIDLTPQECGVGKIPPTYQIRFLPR

[17] = target: CYP2D6 (Homo sapiens, UniProt P10635); assay: Inhibition of CYP2D6 (unknown origin) at 20 uM; assay type: ADME
Chain of CYP2D6 (P10635 whole entry): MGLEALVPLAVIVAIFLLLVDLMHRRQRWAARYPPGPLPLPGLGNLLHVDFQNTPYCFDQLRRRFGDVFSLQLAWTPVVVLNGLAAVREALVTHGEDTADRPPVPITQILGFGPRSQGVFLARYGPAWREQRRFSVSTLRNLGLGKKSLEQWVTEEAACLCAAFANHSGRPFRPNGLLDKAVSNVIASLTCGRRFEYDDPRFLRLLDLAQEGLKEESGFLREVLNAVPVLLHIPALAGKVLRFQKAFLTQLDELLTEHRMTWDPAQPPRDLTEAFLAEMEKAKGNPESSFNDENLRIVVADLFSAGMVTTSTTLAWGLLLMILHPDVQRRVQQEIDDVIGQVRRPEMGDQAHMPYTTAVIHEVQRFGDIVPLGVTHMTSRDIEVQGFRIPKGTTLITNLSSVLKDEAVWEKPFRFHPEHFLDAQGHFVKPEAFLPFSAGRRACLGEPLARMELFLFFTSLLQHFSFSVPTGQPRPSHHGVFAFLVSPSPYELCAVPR

[18] = target: CYP2E1 (Homo sapiens, UniProt P05181); assay: Inhibition of CYP2E1 (unknown origin) at 20 uM; assay type: ADME
Chain of CYP2E1 (P05181 whole entry): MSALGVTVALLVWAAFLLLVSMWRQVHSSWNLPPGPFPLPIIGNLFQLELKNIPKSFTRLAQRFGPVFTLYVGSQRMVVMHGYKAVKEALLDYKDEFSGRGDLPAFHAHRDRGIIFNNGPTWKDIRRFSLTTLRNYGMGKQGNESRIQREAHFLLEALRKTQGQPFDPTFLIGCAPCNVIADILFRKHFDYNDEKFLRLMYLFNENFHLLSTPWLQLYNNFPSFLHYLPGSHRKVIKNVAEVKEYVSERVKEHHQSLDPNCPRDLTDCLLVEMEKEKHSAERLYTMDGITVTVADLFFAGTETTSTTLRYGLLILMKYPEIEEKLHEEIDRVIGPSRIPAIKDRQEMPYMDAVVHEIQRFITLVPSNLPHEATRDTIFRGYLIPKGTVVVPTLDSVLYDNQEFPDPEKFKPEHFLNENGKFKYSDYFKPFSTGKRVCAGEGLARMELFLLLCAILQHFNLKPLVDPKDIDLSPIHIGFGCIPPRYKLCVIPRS

[19] = tested on: CT26; assay: Cytotoxicity against mouse CT26 cells assessed as reduction in cell viability incubated for 72 hrs by CCK-8 assay; details: CT26, 72 h
[20] = tested on: Panc02; assay: Cytotoxicity against mouse Panc02 cells assessed as reduction in cell viability incubated for 72 hrs by CCK-8 assay; details: Panc02, 72 h
[21] = Cytotoxicity against HEK293 cells assessed as reduction in cell viability incubated for 72 hrs by CCK-8 assay; assay type: toxicity, cell-based; details: human
[22] = tested on: CT26; assay: Antitumor activity against mouse CT26 cells allografted in BALB/c mouse assessed as tumor growth inhibition at 75 mg/kg, po administered once a day for 14 days; assay type: functional; details: CT26, 336 h, time 14 day, read-out: TGI

pIC50 [1]: < 6.00
SMILES: C[C@H](NC(=O)c1c(/N=C/c2cccc(C(F)(F)F)c2)sc2c1CCOC2)c1ccc(C(=O)O)cc1

inhibition at 20 µM [14]: 24%
pIC50 [1]: 8.68
pIC50 [2]: 6.47
pIC50 [3]: < 5.00
pIC50 [4]: < 5.00
pIC50 [5]: < 5.00
half-life [6]: > 2.42 h
microsomal CLint [7]: < 9.6 µL/min/mg
remaining at 1 h, 10 µM [8]: 90%
half-life [9]: > 2.42 h
microsomal CLint [10]: < 9.6 µL/min/mg
remaining at 1 h, 10 µM [11]: 87.9%
inhibition at 20 µM [15]: 69%
inhibition at 20 µM [16]: 68%
inhibition at 20 µM [17]: 62%
inhibition at 20 µM [18]: 26%
SMILES: C[C@H](NC(=O)c1c(Cc2ccc(C(F)(F)F)cc2)sc2c1CCOC2)c1ccc(C(=O)O)cc1
pIC50 [12]: < 4.00
pIC50 [13]: < 4.00
pIC50 [19]: < 4.00
pIC50 [20]: < 4.00
IC50 at 72 h [21]: > 100000 nM

pIC50 [1]: 6.19
SMILES: C[C@H](NC(=O)c1c(C#Cc2ccc(=O)[nH]c2)sc2c1CCOC2)c1ccc(C(=O)O)cc1

pIC50 [1]: 8.57
SMILES: CC(C)c1ccc(Cc2sc3c(c2C(=O)N[C@@H](C)c2ccc(C(=O)O)cc2)CCOC3)cc1

pIC50 [1]: 8.49
SMILES: C[C@H](NC(=O)c1c(Cc2cccc(Cl)c2)sc2c1CCOC2)c1ccc(C(=O)O)cc1

pIC50 [1]: < 6.00
SMILES: O=C(O)c1cccc(CNC(=O)c2c(Cc3cccc(C(F)(F)F)c3)sc3c2CCOC3)c1

pIC50 [3]: < 5.00
pIC50 [4]: < 5.00
pIC50 [5]: < 5.00
SMILES: COc1ccc(Cc2sc3c(c2C(=O)N[C@@H](C)c2ccc(C(=O)O)cc2)CCOC3)cc1F

Continued, compound first:

SMILES: CC(=O)N1CCc2c(sc(CCc3ccc(F)cc3)c2C(=O)N[C@@H](C)c2ccc(C(=O)O)cc2)C1
pIC50 [1]: < 6.00

SMILES: C[C@H](NC(=O)c1c(CCc2ccc(F)cc2)sc2c1CCC2)c1ccc(C(=O)O)cc1
pIC50 [2]: 7.70
pIC50 [3]: < 5.00
pIC50 [4]: < 5.00
pIC50 [5]: < 5.00
half-life [6]: 0.105 h
microsomal CLint [7]: 221 µL/min/mg
remaining at 1 h, 10 µM [8]: 12.2%
half-life [9]: 0.268 h
microsomal CLint [10]: 86.1 µL/min/mg
remaining at 1 h, 10 µM [11]: 6.8%

SMILES: C[C@H](NC(=O)c1c(CCc2ccc(F)cc2)sc2c1CC(C)(C)OC2)c1ccc(C(=O)O)cc1
pIC50 [1]: 7.44

SMILES: CON(C)C(=O)c1ccc([C@H](C)NC(=O)c2c(Cc3ccc(F)cc3)sc3c2CCOC3)cc1
pIC50 [1]: 6.73

SMILES: COC(=O)c1ccc([C@H](C)NC(=O)c2c(Cc3ccc(F)cc3)sc3c2CCOC3)cc1
pIC50 [1]: < 6.00

SMILES: C[C@H](NC(=O)c1c(CCc2ccc(F)cc2)sc2c1CCN(C(=O)OC(C)(C)C)C2)c1ccc(C(=O)O)cc1
pIC50 [1]: 6.50

SMILES: C[C@H](NC(=O)c1c(C(F)F)nn(C)c1Oc1cccc(C(F)(F)F)c1)c1ccc(C(=O)O)cc1 [PALUPIPRANT]
inhibition at 20 µM [14]: 33%
pIC50 [2]: 6.99
half-life [6]: > 2.42 h
microsomal CLint [7]: < 9.6 µL/min/mg
remaining at 1 h, 10 µM [8]: 83.6%
half-life [9]: > 2.42 h
microsomal CLint [10]: < 9.6 µL/min/mg
remaining at 1 h, 10 µM [11]: 95.7%
inhibition at 20 µM [15]: 59%
inhibition at 20 µM [16]: 77%
inhibition at 20 µM [17]: 65%
inhibition at 20 µM [18]: 21%
IC50 at 72 h [21]: > 100000 nM
inhibition in vivo at 75 mg/kg [22]: 39.9%
